In patent publication US10246444B2, “1,2-dithiolane and dithiol compounds useful in treating mutant EGFR-mediated diseases and conditions” (Sabila Biosciences LLC, priority 2017, dated 2019) one finds Kd and IC50 data, which are given here for four compounds.

The structures appear in SMILES notation.

What is called Kd is the concentration at which binding is half-saturated. The IC50 is the concentration at which inhibition is half-maximal.

One experiment addresses EGFR E746-A750del (Homo sapiens (Human), UniProt P00533, DEL746-750). In words: KINOMEscan competition binding assay (Kd). As to conditions: KINOMEscan binding constant; read-out: Kd Activity Level (EGFR E746-A750del).
The target in a further experiment is EGFR S752-I759del (Homo sapiens (Human), UniProt P00533, DEL752-759). In words: KINOMEscan competition binding assay (Kd). The note with it: KINOMEscan binding constant; read-out: Kd Activity Level (EGFR S752-I759del).
The next experiment deals with EGFR (L858R) (Homo sapiens (Human), UniProt P00533, L858R). In words: KinaseSeeker rabbit reticulocyte lysate competition binding assay (IC50).
A further experiment has as its target HER2 (Homo sapiens (Human), UniProt P04626). The description is as above.
Experiment [1] has as its target various mutant EGF receptors (Homo sapiens, UniProt P00533, DEL747-752/P753S). In words: KINOMEscan competition binding assay (Kd), Example 40 in various mutant EGF receptors (Table 17).
In experiment [2] the target is various mutant EGF receptors (Homo sapiens, UniProt P00533, A750P/DEL747-749). Described as above.
The target of experiment [3] is various mutant EGF receptors (Homo sapiens, UniProt P00533, L861Q). The description is as above.
The target of experiment [4] is various mutant EGF receptors (Homo sapiens, UniProt P00533, DEL747-751/INS746S). The description is as above.
Experiment [5] has as its target various mutant EGF receptors (Homo sapiens, UniProt P00533, G719C). The description is as above.
Experiment [6] deals with various mutant EGF receptors (Homo sapiens, UniProt P00533, G719S). The description is as above.
In another experiment the target is EGFR WT (Homo sapiens (Human), UniProt P00533). In words: KinaseSeeker rabbit reticulocyte lysate competition binding assay (IC50).
Experiment [7] has as its target kinase (Homo sapiens, UniProt P00533, DEL746-750). Put plainly: Radioisotope filter binding assay (33P-ATP kinase activity, IC50). As to conditions: EGFR E746-A750del, read-out: IC50 Activity level EGFR E746-A750del. It counts as biochemical. On the procedure:
(§1) Radioisotope Filter Binding Assay: In this assay format, it directly detects the true product without the use of modified substrates or coupling enzymes (Uitdehaag, J. C. et al. Br. J. Pharmacol. 2012, 166, 858-876; Hastie, C. J. et al. Nat. Protoc. 2006, 1, 968-971) according to equation 1.
(§2) The protocol calls for test compound of the invention to be incubated with kinase, substrate, cofactors, and radio-isotope-labeled ATP (^33P-gamma-ATP). The reaction mixtures are then spotted onto filter papers which bind the radioisotope labeled catalytic product. Unreacted phosphate is removed via washing. The reagents used include base reaction buffer; 20 mM Hepes (pH 7.5), 10 mM MgCl2, 1 mM EGTA, 0.02% Brij35, 0.02 mg/ml BSA, 0.1 mM Na3VO4, 2 mM DTT, 1% DMSO. The reaction procedure include the following steps: (1) prepare indicated substrate in freshly prepared base reaction buffer, (2) deliver any required cofactors to the substrate solution above, (3) deliver indicated kinase into the substrate solution and gently mix, (4) deliver compounds in DMSO into the kinase reaction mixture by Acoustic technology (Echo550; nanoliter range), incubate for 20 minutes at room temperature, (5) deliver ^33P-ATP (specific activity 10 μCi/μL) into the reaction mixture to initiate the reaction, (6) incubate kinase reaction for 2 hours at room temperature, (7) reactions are spotted onto P81 ion exchange paper, (8) detect kinase activity by filter-binding method.

Experiment [8] concerns the target kinase (Homo sapiens, UniProt P00533). Described as above. The note with it: EGFR WT, read-out: IC50 Activity level EGFR WT. It counts as biochemical. On the procedure: as §1, §2
Experiment [9] concerns the target kinase (Homo sapiens, UniProt P00533, L858R). Described as above. It counts as biochemical. The note with it: EGFR L858R, read-out: IC50 Activity level EGFR L858R. On the procedure: as §1, §2
The target of experiment [10] is kinase (Homo sapiens, UniProt Q15303). Described as above. Format: biochemical. The note with it: HER 4, read-out: IC50 Activity level HER 4. On the procedure:
as §1, §2

For experiment [11], the target named is kinase. The experiment is described as above. Format: biochemical. The note with it: HER 2, read-out: IC50 Activity level HER 2. On the procedure: as §1, §2

Sequence of kinase (Homo sapiens, UniProt P00533, L858R) (P00533 25-1210 L858R limits assumed): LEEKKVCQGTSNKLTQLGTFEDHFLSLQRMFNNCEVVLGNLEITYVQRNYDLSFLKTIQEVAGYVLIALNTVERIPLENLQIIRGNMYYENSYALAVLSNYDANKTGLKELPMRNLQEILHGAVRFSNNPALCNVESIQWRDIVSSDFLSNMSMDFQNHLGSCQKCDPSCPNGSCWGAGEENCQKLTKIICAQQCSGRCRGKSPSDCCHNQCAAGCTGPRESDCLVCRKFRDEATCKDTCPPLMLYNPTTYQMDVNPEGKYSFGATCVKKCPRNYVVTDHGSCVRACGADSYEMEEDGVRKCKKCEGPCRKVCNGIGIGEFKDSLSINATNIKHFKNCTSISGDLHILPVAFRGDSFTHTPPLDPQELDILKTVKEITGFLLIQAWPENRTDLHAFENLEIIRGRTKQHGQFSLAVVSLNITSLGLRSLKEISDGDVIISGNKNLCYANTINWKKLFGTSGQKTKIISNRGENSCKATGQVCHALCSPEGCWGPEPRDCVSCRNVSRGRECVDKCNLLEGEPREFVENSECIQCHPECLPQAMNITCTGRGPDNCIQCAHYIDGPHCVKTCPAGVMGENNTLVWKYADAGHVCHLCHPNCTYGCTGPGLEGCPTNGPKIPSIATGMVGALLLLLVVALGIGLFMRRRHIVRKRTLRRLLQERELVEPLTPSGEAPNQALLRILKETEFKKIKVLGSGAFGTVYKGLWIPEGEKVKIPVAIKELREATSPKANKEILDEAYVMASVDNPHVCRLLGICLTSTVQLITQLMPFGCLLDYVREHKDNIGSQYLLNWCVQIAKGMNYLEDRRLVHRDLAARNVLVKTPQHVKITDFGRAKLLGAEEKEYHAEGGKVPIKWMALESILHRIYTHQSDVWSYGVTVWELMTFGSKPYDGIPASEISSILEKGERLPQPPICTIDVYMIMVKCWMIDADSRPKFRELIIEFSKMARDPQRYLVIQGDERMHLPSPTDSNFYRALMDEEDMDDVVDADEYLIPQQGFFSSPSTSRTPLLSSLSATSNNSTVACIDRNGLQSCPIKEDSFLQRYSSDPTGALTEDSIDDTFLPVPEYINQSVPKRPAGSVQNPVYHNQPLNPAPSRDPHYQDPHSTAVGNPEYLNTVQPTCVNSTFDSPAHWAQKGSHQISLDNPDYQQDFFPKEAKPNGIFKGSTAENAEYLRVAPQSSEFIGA
Sequence of EGFR (L858R) (P00533 25-1210 L858R): as the sequence (P00533 25-1210 L858R limits assumed) above
Sequence of kinase (Homo sapiens, UniProt Q15303) (Q15303 26-1308 limits assumed): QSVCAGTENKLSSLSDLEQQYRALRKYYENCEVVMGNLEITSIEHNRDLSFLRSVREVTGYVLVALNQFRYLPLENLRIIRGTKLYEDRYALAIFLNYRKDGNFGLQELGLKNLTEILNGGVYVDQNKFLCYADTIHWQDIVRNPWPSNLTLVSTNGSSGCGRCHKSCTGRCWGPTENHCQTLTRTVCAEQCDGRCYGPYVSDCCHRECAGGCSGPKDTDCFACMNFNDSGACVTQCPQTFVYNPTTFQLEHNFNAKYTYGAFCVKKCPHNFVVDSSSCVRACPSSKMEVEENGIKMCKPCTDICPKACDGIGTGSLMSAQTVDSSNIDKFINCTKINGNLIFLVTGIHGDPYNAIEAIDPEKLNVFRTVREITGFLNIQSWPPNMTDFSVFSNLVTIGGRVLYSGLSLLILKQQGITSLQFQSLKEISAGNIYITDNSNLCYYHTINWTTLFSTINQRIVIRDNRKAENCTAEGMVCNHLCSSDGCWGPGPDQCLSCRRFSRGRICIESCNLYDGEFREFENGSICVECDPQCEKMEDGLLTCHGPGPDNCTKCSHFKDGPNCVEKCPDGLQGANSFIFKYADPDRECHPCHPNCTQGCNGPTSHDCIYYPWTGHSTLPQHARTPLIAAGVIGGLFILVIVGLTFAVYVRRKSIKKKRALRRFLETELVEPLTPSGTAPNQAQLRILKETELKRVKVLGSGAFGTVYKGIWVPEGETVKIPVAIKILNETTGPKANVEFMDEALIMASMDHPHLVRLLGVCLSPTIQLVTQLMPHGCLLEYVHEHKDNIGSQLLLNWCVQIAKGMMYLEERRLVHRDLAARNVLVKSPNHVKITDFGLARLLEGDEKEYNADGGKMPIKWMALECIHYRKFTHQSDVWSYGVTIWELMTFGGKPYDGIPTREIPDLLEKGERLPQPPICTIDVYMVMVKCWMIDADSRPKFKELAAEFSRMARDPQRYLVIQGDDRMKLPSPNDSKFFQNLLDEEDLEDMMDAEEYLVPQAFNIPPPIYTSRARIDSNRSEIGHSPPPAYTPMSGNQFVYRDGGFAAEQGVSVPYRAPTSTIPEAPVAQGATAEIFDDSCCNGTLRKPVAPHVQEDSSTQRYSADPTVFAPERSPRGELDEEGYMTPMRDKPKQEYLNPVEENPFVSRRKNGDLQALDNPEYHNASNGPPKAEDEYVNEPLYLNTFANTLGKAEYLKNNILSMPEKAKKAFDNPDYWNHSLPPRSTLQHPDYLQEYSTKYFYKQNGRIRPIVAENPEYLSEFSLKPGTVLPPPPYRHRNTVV
Sequence of kinase (Homo sapiens, UniProt P00533, DEL746-750) (P00533 with tags, fused parts or gaps DEL746-750 limits assumed): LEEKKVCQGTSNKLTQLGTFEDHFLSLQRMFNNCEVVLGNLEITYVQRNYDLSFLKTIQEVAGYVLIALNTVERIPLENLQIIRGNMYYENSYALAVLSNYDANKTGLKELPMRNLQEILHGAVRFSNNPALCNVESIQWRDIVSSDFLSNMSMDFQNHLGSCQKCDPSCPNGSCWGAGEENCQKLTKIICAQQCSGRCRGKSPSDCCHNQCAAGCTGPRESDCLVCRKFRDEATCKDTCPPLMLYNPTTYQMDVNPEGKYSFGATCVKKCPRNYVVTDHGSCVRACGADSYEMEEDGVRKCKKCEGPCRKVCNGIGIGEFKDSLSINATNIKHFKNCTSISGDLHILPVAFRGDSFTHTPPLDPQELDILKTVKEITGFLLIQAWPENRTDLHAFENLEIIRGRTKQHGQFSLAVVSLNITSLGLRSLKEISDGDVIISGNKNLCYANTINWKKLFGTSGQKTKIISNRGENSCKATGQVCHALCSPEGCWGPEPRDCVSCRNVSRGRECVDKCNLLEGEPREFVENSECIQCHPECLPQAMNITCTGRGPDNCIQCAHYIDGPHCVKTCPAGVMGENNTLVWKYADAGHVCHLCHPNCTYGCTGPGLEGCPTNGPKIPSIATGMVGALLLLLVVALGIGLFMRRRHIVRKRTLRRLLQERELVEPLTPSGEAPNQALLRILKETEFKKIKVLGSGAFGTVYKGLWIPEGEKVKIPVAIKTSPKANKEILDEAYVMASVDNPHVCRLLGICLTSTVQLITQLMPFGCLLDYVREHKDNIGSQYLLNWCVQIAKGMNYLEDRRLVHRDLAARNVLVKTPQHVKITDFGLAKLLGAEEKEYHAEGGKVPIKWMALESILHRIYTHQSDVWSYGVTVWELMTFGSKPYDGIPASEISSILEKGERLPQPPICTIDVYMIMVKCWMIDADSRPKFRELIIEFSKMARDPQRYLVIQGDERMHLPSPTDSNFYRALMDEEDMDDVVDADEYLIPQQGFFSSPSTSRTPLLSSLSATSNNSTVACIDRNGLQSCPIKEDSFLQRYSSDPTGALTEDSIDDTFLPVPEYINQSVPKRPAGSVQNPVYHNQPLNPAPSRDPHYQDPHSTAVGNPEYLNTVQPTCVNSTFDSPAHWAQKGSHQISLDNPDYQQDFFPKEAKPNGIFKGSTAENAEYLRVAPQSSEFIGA

As for `CCOc1cc2ncc(C#N)c(Nc3ccc(OCc4cccc(F)c4)c(Cl)c3)c2cc1NC(=O)CC1CCSS1` (stereo not shown) [Example 40], the Kd (at EGFR E746-A750del; on EGFR S752-I759del; in experiment [1]; in experiment [2]; in experiment [3]; in experiment [4]) was 1 to 99 nM throughout. Also, the Kd in [5] and in experiment [6] was 1 to 99 nM throughout. Besides, the values for the IC50 on EGFR (L858R), on HER2 and on EGFR WT were 1 to 99 nM, 100 to 999 nM and 100 to 999 nM, respectively.

Turning to `N#Cc1cnc2cc(OC[C@H](O)CO)c(NC(=O)CC3CSSC3)cc2c1Nc1ccc(OCc2cccc(F)c2)c(Cl)c1` [Example 90, (R)—N-(4-((3-Chloro-4-((3-fluorobenzyl)oxy)phenyl)amino)-3-cyano-7-(2,3-dihydroxypropoxy)quinolin-6-yl)-2-(1,2-dithiolan-4-yl)acetamide], the IC50 at kinase [7] was 1000 to 10000 nM; at kinase [8], 1 to 99 nM; on kinase [9] it was 100 to 999 nM; at kinase [10] it was 1 to 99 nM; at EGFR (L858R) it was 1 to 99 nM; on EGFR WT it was 100 to 999 nM.

Regarding `N#Cc1cnc2cc(OC[C@@H](O)CO)c(NC(=O)CC3CSSC3)cc2c1Nc1ccc(OCc2cccc(F)c2)c(Cl)c1` [Example 92, (S)—N-(4-((3-Chloro-4-((3-fluorobenzyl)oxy)phenyl)amino)-3-cyano-7-(2,3-dihydroxypropoxy)quinolin-6-yl)-2-(1,2-dithiolan-4-yl)acetamide], the IC50 on kinase [11] was 100 to 999 nM; on kinase [7] it was 1000 to 10000 nM; at kinase [8], 1 to 99 nM; at kinase [9], 100 to 999 nM; on kinase [10], 1 to 99 nM; on EGFR (L858R) it was 1 to 99 nM. The IC50 at HER2 and on EGFR WT was 100 to 999 nM each time. Besides, the Kd at EGFR E746-A750del and at EGFR S752-I759del was 1 to 99 nM throughout.

On to `N#Cc1cnc2cc(OC[C@@H](O)CO)c(NC(=O)C3CSSC3)cc2c1Nc1ccc(OCc2cccc(F)c2)c(Cl)c1` [Example 98, (S)—N-(4-((3-Chloro-4-((3-fluorobenzyl)oxy)phenyl)amino)-3-cyano-7-(2,3dihydroxypropoxy)quinolin-6-yl)-1,2-dithiolane-4-carboxamide], for which the 50% inhibitory concentration (IC50) at kinase [11] lay within 100 to 999 nM; on kinase [7], 100 to 999 nM; on kinase [8], 1 to 99 nM; at kinase [9], 1 to 99 nM; on kinase [10], 1 to 99 nM; on EGFR (L858R), 1 to 99 nM. The IC50 on EGFR WT was 100 to 999 nM.
